Test results taken from a melting point compilation (Tetko et al.).

Cc1nn(C)c(C)c1C(O)C(F)(F)F (configuration not stated)
melting point: 140 to 142 °C

Cn1cc(C(=O)c2cccc(F)c2)cn1
melting point: 103 to 105 °C

CC(=O)NCCc1ccc(C(=O)CCl)s1
melting point: 124 to 126 °C

CC(C)c1nc(N)n(C)n1
melting point: 108 to 110 °C

COCCN(CCOC)S(=O)(=O)c1ccc(C(=O)O)cc1
melting point: 147 to 149 °C

CCN(CC)S(=O)(=O)c1ccc(NC(=O)CCl)cc1
melting point: 103 to 105 °C

CC(C)(C)c1nc(C(=O)O)cs1
melting point: 126 to 128 °C

CC(C)c1cccc(C(=O)O)n1
melting point: 63 to 65 °C

COC(=O)c1cc(Br)ccc1S(=O)(=O)Cl
melting point: 66 to 70 °C

Nc1nc2cnc(Cl)nc2s1
melting point: 209 to 211 °C

O=C(CNC1CC1)NC1CC1
melting point: 47 to 49 °C

O=C(O)CCc1n[nH]c(=O)[nH]c1=O
melting point: 203 to 205 °C

COc1ccc(-c2cc(C(=O)O)no2)c(F)c1
melting point: 194 to 196 °C

Cc1cc2occ(CC(=O)O)c2cc1C(C)C
melting point: 141 to 143 °C

Cn1cc(Nc2ccc(=O)n(C)c2)ccc1=O
melting point: 270 to 272 °C

CCNC(=O)c1cccc(C#N)c1
melting point: 99 to 101 °C

Cc1sc(C(=O)O)cc1-c1ccc(F)cc1
melting point: 156 to 158 °C

O=C(O)c1ccc(Cl)c(NC(=O)c2cccs2)c1
melting point: 166 to 168 °C

Cc1cc(CN)cc(C)c1O
melting point: 99 to 101 °C

COc1ccc(NC(=O)NN)cc1
melting point: 146 to 148 °C

N#Cc1ccc(OCCO)cc1
melting point: 85 to 87 °C

Nc1ccc(S(=O)(=O)N2CCCC2)cc1
melting point: 164 to 166 °C

COc1ccc(C(C)(C#N)NC(=O)C(F)(F)F)cc1OC (configuration not stated)
melting point: 145 to 147 °C

O=C(Cn1ccnc1)c1cccc(F)c1
melting point: 113 to 115 °C

COC(=O)CCc1nnc(N)s1
melting point: 135 to 137 °C

C#CCNS(=O)(=O)c1ccccc1
melting point: 60 to 62 °C

CCc1cccc2c(C=O)c[nH]c12
melting point: 99 to 101 °C

CC1CC(C)CN(S(=O)(=O)c2ccc(N)cc2)C1 (configuration not stated)
melting point: 157 to 159 °C

CC(C)c1ccc(O)c(C(=O)O)c1
melting point: 123 to 125 °C

O=C(O)c1ccc(S(=O)(=O)Nc2nccs2)cc1
melting point: 289 to 291 °C

Nc1ccc(Oc2ccc(F)cc2)cn1
melting point: 74 to 76 °C

CC(=O)c1ccc(N2CCCC2)c(F)c1
melting point: 36 to 38 °C

Nc1cnc(Br)cc1C(=O)O
melting point: 256 to 258 °C

CCN(CC)S(=O)(=O)c1ccc(N2CC(C(=O)O)CC2=O)cc1 (configuration not stated)
melting point: 123 to 127 °C

Cc1cc(Br)c(O)c(C(=O)O)c1
melting point: 201 to 203 °C

Cc1ccc(C(=O)O)c(O)c1O
melting point: 204 to 206 °C

Cc1ccc(S(C)(=O)=O)cc1S(=O)(=O)Cl
melting point: 136 to 138 °C

CC1CCC(C(C)C)C(NC(=O)c2ccnc(F)c2)C1 (configuration not stated)
melting point: 79 to 81 °C

Cc1ccc(Cn2ncc3c(C(=O)O)cc(C)nc32)cc1
melting point: 190 to 192 °C

CC(C)(Br)C(=O)Nc1ccccc1
melting point: 82 to 84 °C

CS(=O)(=O)N1CC(C(=O)O)Oc2ccccc21 (configuration not stated)
melting point: 167 to 169 °C

Cc1ccc(/C=C/c2cc(C(=O)O)c3cc(Br)ccc3n2)cc1
melting point: 306 to 308 °C

CCOC(=O)c1ccc(S(=O)(=O)N2CCC(C(=O)O)CC2)o1
melting point: 170 to 172 °C

c1cnc(N2CCNCC2)cn1
melting point: 48 to 50 °C

COc1ccc(-c2nnc(S)n2N)cc1OC
melting point: 204 to 208 °C

CC(=O)NCCc1ccc(S(=O)(=O)Cl)s1
melting point: 87 to 89 °C

COC(=O)c1cc2c(OC(F)F)cccc2[nH]1
melting point: 144 to 146 °C

O=C(O)c1ccc(COc2ccccc2Br)cc1
melting point: 185 to 187 °C

N#CCC(=O)NCC1CCCO1 (configuration not stated)
melting point: 90 to 94 °C

COc1ccc(SCCC(=O)O)cc1OC
melting point: 72 to 74 °C

Cn1cc(S(=O)(=O)Cl)cc1C(=O)C(Cl)(Cl)Cl
melting point: 158 to 160 °C

Cc1ccc(-c2csc3ncnc(Cl)c23)cc1C
melting point: 179 to 181 °C

CC(C)(C)NS(=O)(=O)c1cc(N)c(F)cc1F
melting point: 109 to 111 °C

Cc1cc(NC(=O)c2ccc(F)cc2Cl)sc1C(=O)O
melting point: 207 to 209 °C

O=C(O)c1cc([N+](=O)[O-])cc(F)c1F
melting point: 132 to 134 °C

O=c1[nH]nnn1-c1ccccc1
melting point: 188 to 189 °C

Cc1cc2ccn(C)c2c(=O)[nH]1
melting point: 189 to 191 °C

CCC1CCc2[nH]c(=O)c(C#N)cc2C1 (configuration not stated)
melting point: 224 to 226 °C

Cc1ccccc1-c1nnc(S)n1N
melting point: 199 to 201 °C

COc1cc(-c2ccccc2)sc1C(=O)O
melting point: 167 to 169 °C

CC(Cl)C(=O)Nc1ccc(F)c([N+](=O)[O-])c1 (configuration not stated)
melting point: 96 to 98 °C

O=C(O)c1ccccc1Oc1cccnc1
melting point: 134 to 136 °C

Nc1ccc(C(=O)O)nc1Cl
melting point: 214 to 216 °C

COC(=O)c1ccc(C(F)(F)F)cc1SC
melting point: 49 to 51 °C

O=C(c1ccc(Cl)cc1)c1ccsc1
melting point: 92 to 94 °C

Cn1cc(C(=O)O)c(C(F)(F)F)n1
melting point: 210 to 212 °C

Nc1ccc(-c2nc3ccccc3[nH]2)cn1
melting point: 352 to 354 °C

Nc1cc(-c2ccco2)nn1-c1ccc(F)cc1F
melting point: 120 to 122 °C

O=C(Nc1ccc(F)cc1)C1CCc2ccccc2N1 (configuration not stated)
melting point: 115 to 117 °C

Cc1ccc(O)c(C(=O)NO)c1
melting point: 179 to 181 °C

CCOc1ccccc1OCCC(=O)O
melting point: 97 to 99 °C

O=C(O)c1ccc(N2C(=O)CCC2=O)cc1
melting point: 210 to 212 °C

O=C1CCCN1CO
melting point: 79 to 81 °C

NCc1ccccc1NS(=O)(=O)c1ccccc1
melting point: 188 to 190 °C

Cc1cccc(Oc2ncccc2N)c1C
melting point: 147 to 149 °C

Cc1nc(O)ccc1I
melting point: 209 to 211 °C

Cc1nnc(N2CCCC2)c(C(N)=O)c1C
melting point: 211 to 213 °C

CNCc1nnn[nH]1
melting point: 224 to 226 °C

NC1CCN(C(=O)C2CCCCC2)C1 (configuration not stated)
melting point: 72 to 74 °C

Cn1c(C(N)c2ccccc2)nc2ccccc21 (configuration not stated)
melting point: 110 to 112 °C

O=S(=O)(Nc1cn[nH]c1)c1ccccc1F
melting point: 186 to 188 °C

Oc1ccc(-c2cscn2)cc1
melting point: 146 to 148 °C

O=C(O)c1cn(-c2ccccc2)nn1
melting point: 138 to 140 °C

O=C(O)c1ncoc1-c1ccco1
melting point: 171 to 173 °C

N#CCC(=O)Nc1ccccc1Br
melting point: 136 to 138 °C

CC1(C)OC(=O)C(C(=O)C2CCCC2)C(=O)O1
melting point: 63 to 65 °C

N#Cc1cc(Cl)ccc1S(=O)(=O)Cl
melting point: 97 to 99 °C

O=C(O)c1ccn(-c2ccc(Cl)c(Cl)c2)n1
melting point: 191 to 193 °C

NNC(=O)CCc1ccco1
melting point: 72 to 74 °C

COC(=O)[C@@H]1C[C@@H](O)CN1C(=O)C12CC3CC(CC(C3)C1)C2
melting point: 158 to 160 °C

O=C(O)Cn1ncn2nccc2c1=O
melting point: 213 to 215 °C

Cc1nc(C#N)c(NN)o1
melting point: 157 to 159 °C

BrCC1CSc2nnc(-c3ccccc3)n21 (configuration not stated)
melting point: 157 to 159 °C

O=C(O)CCOc1ccccc1[N+](=O)[O-]
melting point: 121 to 123 °C

O=C(COc1ccc(F)cc1)N1CCNCC1
melting point: 89 to 91 °C

O=C(O)c1ccccc1NS(=O)(=O)c1ccc2[nH]c(=O)[nH]c2c1
melting point: 225 to 227 °C

CN1CCCN(c2nc3ccccc3cc2CO)CC1
melting point: 95 to 97 °C

Cn1c(CO)nnc1-c1ccccc1
melting point: 184 to 186 °C

C(=C\c1ccncc1)/c1ccccc1
melting point: 128 to 130 °C

CC(=O)c1cc(F)ccc1-n1ccnc1
melting point: 182 to 184 °C

Cc1cc(S(=O)(=O)c2ccc(O)c(C)c2)ccc1O
melting point: 273 to 276 °C

CS(=O)(=O)Nc1ccc(S(=O)(=O)Cl)cc1
melting point: 141 to 143 °C

NC(Cc1cccc2cccnc12)=NO
melting point: 172 to 174 °C

CCOC(=O)c1cc(Br)cc(S(N)(=O)=O)c1
melting point: 119 to 121 °C

N#CCOc1ccc(CBr)cc1
melting point: 74 to 76 °C

O=C(Nc1cccnc1)C(Cl)C(=O)c1ccccc1 (configuration not stated)
melting point: 86 to 90 °C

O=C(O)COc1ccc2ccccc2c1Br
melting point: 158 to 160 °C

NC(=S)Cc1ccccc1F
melting point: 92 to 94 °C

O=C(O)C=Cc1ccc2ccccc2n1
melting point: 169 to 171 °C

O=C(CC1SC(N2CCCC2)=NC1=O)Nc1ccc(C(=O)O)cc1 (configuration not stated)
melting point: 180 to 183 °C

Fc1ccc2ccc(Cl)nc2c1
melting point: 97 to 99 °C

NC(=S)COc1ccccc1-c1ccccc1
melting point: 177 to 179 °C

Cc1c(N)cccc1N1CCCC1=O
melting point: 170 to 172 °C

O=C1OCCN1c1ccc(Cl)c([N+](=O)[O-])c1
melting point: 163 to 165 °C

O=C(O)CNC(=O)C1CCC1
melting point: 107 to 109 °C

COc1cc(C(=O)O)cc(Br)c1O
melting point: 197 to 199 °C

N#Cc1ccc(S(N)(=O)=O)cc1Cl
melting point: 157 to 159 °C

CC1(c2ccc3c(c2)OCCCO3)NC(=O)NC1=O (configuration not stated)
melting point: 192 to 194 °C

COc1cc(C=O)c([N+](=O)[O-])cc1OCc1ccccc1
melting point: 130 to 132 °C

Cc1ccc(S(=O)(=O)NC(C)C)cc1C(=O)O
melting point: 162 to 164 °C

CC1CSc2ccccc2NC1=O (configuration not stated)
melting point: 178 to 180 °C

COCCOc1ccc(Cl)cc1C(=O)O
melting point: 68 to 70 °C

COCC(=O)Nc1cccc(N)c1
melting point: 82 to 84 °C

N#Cc1ccccc1-c1ccccc1C(=O)O
melting point: 168 to 170 °C

O=C(CCl)c1cc([N+](=O)[O-])c[nH]1
melting point: 199 to 201 °C

Cc1ccc(F)c(N)c1C(=O)O
melting point: 114 to 116 °C

NNC(=O)COc1ccc(OCc2ccccc2)cc1
melting point: 142 to 144 °C

Cc1ccc2[nH]c(=O)n3nc(C4CC4)nc3c2c1
melting point: 260 to 262 °C

O=C(O)c1c(O)cnc2ccccc12
melting point: 199 to 201 °C

O=C(O)C(c1ccccc1)n1cccn1 (configuration not stated)
melting point: 141 to 143 °C

C=CCOc1ccc(C(=O)O)cc1OC
melting point: 173 to 175 °C

COc1ccc(-c2csc3ncnc(Cl)c23)cc1
melting point: 163 to 167 °C

c1ccc2[nH]c(C3CCCCN3)cc2c1 (configuration not stated)
melting point: 151 to 153 °C

N#Cc1ccsc1NC(=O)CCCl
melting point: 150 to 152 °C

NCc1cc2c([nH]c1=O)CCC2
melting point: 129 to 131 °C

COc1cc(Br)c(S(=O)(=O)Cl)cc1C(=O)O
melting point: 196 to 198 °C

NNC(=O)c1cc2ccccc2o1
melting point: 171 to 173 °C

O=C(O)CNc1ccccc1[N+](=O)[O-]
melting point: 80 to 82 °C

O=Cc1c(Cl)c2ccccc2oc1=O
melting point: 113 to 115 °C

CCC(Nc1ccccc1)C(N)=O (configuration not stated)
melting point: 122 to 124 °C

CC(=O)c1ccc(N2CCNCC2)c(F)c1
melting point: 104 to 106 °C

COc1ccc(-c2nnc(S)[nH]2)c(OC)c1
melting point: 250 to 252 °C
